Data reported in publication PMC10180197, “Novel Pyrimidine Derivatives as Antioxidant and Anticancer Agents: Design, Synthesis and Molecular Modeling Studies” (Molecules, 2023).
Values belong to the compound of their own block, whether it stands above or below them.

Key:
[1] = molecular target: T1, soybean lipoxygenase (Glycine max, UniProt P08170); assay: Inhibition of soybean lipoxygenase; type: biochemical; conditions: 100 μM; cells of the mixed column without μM; read-out: LOX % Inhibition 100 μM
T1 construct: purchased Sigma Aldrich- Merck KGaA, Darmstadt, Germany
T1 sequence (P08170 1-839): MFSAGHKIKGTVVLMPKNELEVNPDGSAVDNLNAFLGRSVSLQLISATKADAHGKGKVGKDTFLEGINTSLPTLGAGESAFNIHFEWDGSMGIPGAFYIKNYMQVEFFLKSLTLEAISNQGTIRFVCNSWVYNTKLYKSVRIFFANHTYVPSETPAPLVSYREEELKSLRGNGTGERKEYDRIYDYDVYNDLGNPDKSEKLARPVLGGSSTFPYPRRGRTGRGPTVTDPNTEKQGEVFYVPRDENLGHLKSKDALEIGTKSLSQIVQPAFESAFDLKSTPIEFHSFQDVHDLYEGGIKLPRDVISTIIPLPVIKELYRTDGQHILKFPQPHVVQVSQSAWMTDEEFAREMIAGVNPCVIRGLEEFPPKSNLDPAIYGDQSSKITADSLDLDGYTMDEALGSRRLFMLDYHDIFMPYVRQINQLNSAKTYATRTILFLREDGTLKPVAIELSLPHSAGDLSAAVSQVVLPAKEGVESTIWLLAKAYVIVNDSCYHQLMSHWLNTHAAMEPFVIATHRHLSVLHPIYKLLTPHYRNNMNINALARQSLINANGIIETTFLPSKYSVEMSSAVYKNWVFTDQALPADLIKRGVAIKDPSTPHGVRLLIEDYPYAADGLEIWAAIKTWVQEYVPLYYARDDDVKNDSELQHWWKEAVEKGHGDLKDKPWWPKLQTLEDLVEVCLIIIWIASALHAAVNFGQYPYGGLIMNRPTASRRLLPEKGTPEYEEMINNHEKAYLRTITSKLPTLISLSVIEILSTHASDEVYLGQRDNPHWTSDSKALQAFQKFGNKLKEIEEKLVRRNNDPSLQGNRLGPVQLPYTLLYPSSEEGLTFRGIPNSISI
Description: Lipoxygenase (LOX) is the key enzyme in the biosynthesis of inflammatory mediators; thus, it is considered a target for inflammatory diseases. Soybean LOX is a plant enzyme that has been used widely as a prototype for studying the functional and structural properties of the homologous family of lipoxygenases, presenting satisfactory homology with the human 5-LOX [42]. Linoleic acid is the most common substrate in plant LOX. […] Lipophilicity is considered one of the most important parameters with regard to LOX inhibitors according to the literature.
In vitro study was performed as reported previously by our group. In this experiment, 10 μL of the tested compound (from the stock solution) were incubated with 100 μL sodium linoleate (diluted in Tris buffer), 200 μL LOX solution (1:9 × 10^−4 w/v in saline) and 690 μL Tris buffer (pH 9.0) at room temperature. The absorbance was measured at 234 nm, where the change of absorbance was recorded due to the formation of 13-hydroperoxy-linoleic acid. […] In order to determine the IC50 values, different concentrations were used.

[2] = Experimental determination of lipophilicity as RM values (RP-TLC); type: physicochemical; conditions: methanol/water 70/30 v/v, 24 °C, SD < 10%
Description: Lipophilicity is an important physicochemical parameter of a drug candidate, linking solubility and membrane permeability with the ADMET (absorption, distribution, metabolism, elimination and toxicity) properties and the overall suitability of a molecule. Reversed-phase thin-layer chromatography was the method used to experimentally determine the lipophilic character of the synthesized compounds as RM values (Table 2). Lipophilicity was also theoretically calculated as clog P values using the Bio-Loom program of BioByte Corp (http://www.biobyte.com/, (accessed on 1 March 2023)). An attempt was made to correlate the experimental RM values with the theoretically calculated clog P values (Table 2). […] This disagreement could be attributed to several factors, e.g., different solvation, silanophilic interactions and hydrogen bonding.
Lipophilicity as RM values was determined through reversed-phase TLC (RP-TLC) on silica gel plates impregnated with 5% v/v liquid paraffin in light petroleum ether. Methanol/water mixture (70/30, v/v) was used as mobile phase. Closed chromatography tanks saturated with the mobile phase at 24 °C were used for the development of the plates while the spots were detected under UV light. For the determination of RM values, five individual measurements of Rf values were recorded, and the RM values were derived from the following Equation (1). (1) RM=log1/Rf−1

[3] = Reducing activity of the stable radical DPPH
Procedure: All the synthesized compounds were studied for their ability to interact with the stable free 2,2-diphenyl-1-picrylhydrazyl radical (DPPH) at a concentration of 100 μM after 20 min and 60 min (Table 4). This assay is based on the reduction of DPPH by transferring one electron from the antioxidant.
In vitro study was performed as reported previously by our group. In this experiment, 20 μL of the tested compound (from the stock solution), 980 μL EtOH and 1 mL ethanolic solution of DPPH (100 μM) were added in a testing tube in a final volume of 2 mL. The free radical scavenging ability was evaluated by recording the change of absorbance at 517 nm, produced by the reduction of DPPH, after 20 and 60 min at room temperature.

[4] = Inhibition of AAPH induced linoleic acid peroxidation
Procedure: For the lipid peroxidation study, 2,2′-Azobis(2-methylpropionamidine) dihydrochloride (AAPH) was used as the generator of peroxy radicals and sodium linoleate as the substrate that undergoes peroxidation. The conversion of linoleic acid to 13-hydroperoxy-linoleic acid was recorded at 234 nm. The change of absorbance reflects the possible antioxidant activity of the tested compounds, in comparison with the reference compound, Trolox.
In vitro study was performed as reported previously by our group. AAPH was used as a free radical generator of alkyl peroxyl radicals. For this experimental procedure, 10 μL of the tested compound (from the stock solution), 10 μL sodium linoleate (16 mM), 50 μL AAPH (40 mM) and 930 μL phosphate-buffered solution (pH 7.4) were added in a UV cuvette (1 mL), pre thermostated at 37 °C. The ability of the compounds to prevent the oxidation of linoleic acid from alkyl peroxyl radicals was evaluated by recording the change of absorbance at 234 nm, due to the conversion of linoleic acid to 13-hydroperoxy-linoleic acid. Trolox was used as the reference.

[5] = MTT cell viability assay, HaCaT; type: cell-based, human; conditions: human, HaCaT cells (epidermal keratinocyte cell line), 100 μΜ
Procedure: The MTT (3-(4,5-dimethylthiazol-2-yl)-2,5-diphenyltetrazolium bromide) assay is a colorimetric method that is used for the evaluation of cell viability. MTT is converted into colored formazan crystals, indicating the activity of mitochondria and therefore the viability of the cells. Unlike dead cells, the metabolic processes of living cells are functional, meaning that the dehydrogenase enzymes are able to reduce the yellow MTT salt solution to purple crystals, at 37 °C. The intensity of the sample’s color, due to the amount of formazan crystals, is proportional to the number of the living cells in it. Additionally, the colored product is dissolved in various solubilizing agents, such as dimethyl sulfoxide (DMSO). The colored products can be quantitatively measured at 450 nm with a plate reader spectrophotometer. In this study, the human epidermal keratinocyte cell line (HaCaT) was treated with different concentrations (100 μM, 50 μM, 10 μM and 1 μM) of the tested compounds and then the viability rates at each effect were calculated.
(§1) Τhe MTT assay was used to evaluate cell viability or cell toxicity, depending on the cell line being tested. The experimental procedure was performed in a 96-well plate, where the cells were seeded and incubated (37 °C, 5% CO2) for 24 h to grow and cover the surface of the wells. Τhe seeding concentrations for the HaCaT and A549 cells were 30 × 10^4 cells/mL and 20 × 10^4 cells/mL, respectively. After the first incubation, the solutions of the compounds (with different concentrations) were added to the adherent cells and incubated for another 24 h. The compounds were tested in triplicate against the control (only cells in medium), the blank (only medium) and the positive/negative control (cells in 100 μM silibinin solution) triplicates. Silibinin, a flavonoid with known anticancer activities, was used as a negative control for the cell viability assay and as positive control for the cytotoxicity testing assay. The light-sensitive MTT-standard solution was prepared by dissolving 1 mg/mL MTT in PBS and then filtrated (in a […] filter (Millipore, Carrigtwohill, Ireland)). On the third day, an appropriate amount of ΜΤΤ solution was added to each well and the plate was incubated for 4 h. During the incubation time, the formazan crystals were formed, which were then dissolved with 100 μL DMSO per well. Finally, the plate was stirred for 30 min, and the optical density (OD) was measured in a plate reader spectrophotometer at 450 nm.

[6] = system: A549 cell line; assay: MTT cytotoxicity assay, A549; type: cell-based, human; conditions: Homo sapiens; A549, 100 μΜ, 24 h; read-out: % Cell Toxicity 100 μΜ
Procedure: The compounds of this study were also tested for their cytotoxic effects against the adenocarcinomic human alveolar basal epithelial cell line (A549) at different concentrations (100 μM, 75 μΜ, 50 μM and 10 μM).
as §1

inhibition at 100 µM [1]: 6%
melting point: 58 to 60 °C
RM [2]: −0.52
SMILES: O=C(/C=C/c1cccs1)c1ccccc1 [Compound 1c, (E)-1-phenyl-3-(thiophen-2-yl)prop-2-en-1-one]

SMILES: CC(Cc1ccc(O)c(O)c1)C(C)Cc1ccc(O)c(O)c1 (centres unmarked) [NDGA, Nordihydroguaretic acid, reference compound]
RA % 100 μM 20 min ([3]; 20 min): 87 - %
RA % 100 μM 60 min ([3]; 60 min): 93 - %

SMILES: Cc1c(C)c2c(c(C)c1O)CCC(C)(C(=O)O)O2 (centres unmarked) [Trolox, 6-Hydroxy-2,5,7,8-tetramethyl-chroman2-carboxylic acid, reference compound]
AAPH % Inhibition 100 μM [4]: - 92%

SMILES: COc1cc(C2Oc3cc([C@H]4Oc5cc(O)cc(O)c5C(=O)[C@@H]4O)ccc3OC2CO)ccc1O (some centres unmarked) [Silibinin, reference compound]
viability at 24 h, 100 μM [5]: 14.9%
cytotoxicity at 100 µM [6]: 96.4%
